The test system of assay [1] is Sprague Dawley rats. Description: Analgesic effect against neuropathic pain, Bennett model (chronic constriction injury). It is filed as in vivo. Conditions: Rattus norvegicus, 1 h; 30 mg/kg po; mechanical allodynia 60 minutes after administration; CCI rats; read-out: % MPE. On the procedure: (iii) In Vivo Data—Determination of Analgesic Effect Against Neuropathic Pain—Bennett Model
Animals were prepared for testing, by use of a surgical procedure that induces neuropathic pain in one paw. IACUC guidelines for rodent survival surgery are followed. All surgical procedures are conducted on a clean, uncluttered surgical station. The area is wiped with a 70% ethanol solution before and after use. All instruments are sterilized by either autoclave or chemical sterilant (such as 2% glutaraldehyde >10 hr). Surgeons wear sterile gloves (for the initial procedure), clean lab coat or scrubs, hairnet or cap, and a half-mask respirator (when not working under a hood). Surgeons thoroughly wash their hands prior to donning sterile gloves. Gloves are disinfected in-between animals by cleansing with povidone iodine, chlorhexidine or 70% alcohol for at least 30 seconds. If multiple surgeries are performed, the instruments are cleaned and sterilized between procedures with hot glass beads (>10 seconds). To prevent thermal or chemical burns, the instruments are cooled by rinsing in sterile saline before use.
To minimize post-operative dehydration/maintain blood volume during the surgery, warmed sterile saline or Lactate Ringers solution at 10-15 mL/kg is administered subcutaneously immediately before or after surgery. This facilitates better renal function and presumably anesthesia product excretion post surgery. For all surgical procedures, anesthesia is induced with 4-5% isoflurane. Anesthesia is be maintained during surgery with 1-3% isoflurane. Following induction, the surgical site is carefully shaved and the exposed area is aseptically prepared with povidone-iodine scrub solution and 70% ethanol 2-3 times.
After site sterilization and anesthetic procedures outline above are completed, a 1.5 cm incision is made at the mid-thigh level to expose the biceps femoris and gluteous superficialis (right side), which are then separated by blunt dissection. The common sciatic nerve is exposed, isolated, and loosely ligated by four 5-0 chromic gut ligatures with <1 mm spacing between each. The surgical site is closed in layers—muscle is closed with 6.0 absorbable sutures, and the skin closed with wound clips. Animals are allowed to recover on a warming plate and are returned to their home cages when fully ambulatory. Animals are not be used for testing until at least 10 days following surgery.
Filament strengths used are: 0.4, 0.6, 1.0, 2, 4, 6, 8, and 15 g. […] Filaments are applied perpendicular to the mid-plantar paw surface with enough force to cause slight buckling and held in place for 6-8 seconds. Positive responses include an abrupt withdrawal of the paw from the stimulus or flinching behavior immediately following removal of the stimulus. The maximum force applied will be 15 g. […] All compounds were orally administered in 10% dimethyl sulfoxide/polyethylene glycol at a volume of 2.0 mL/kg, and mechanical allodynia was determined 60 minutes following compound administration. Data are reported as log g values and the percentage of maximum possible effect (% MPE) is calculated using log g values with the formula: % MPE=(log [observed PWT in grams]−log [mean PWT vehicle])/(log [15]−log [mean PWT vehicle])*100 All statistical procedures are run on log g values.

For assay [2], the target named is human Cav2.2 (Homo sapiens, UniProt Q00975). Nature of the assay: Assessment of calcium channel activity using FLIPR (Ca2+ influx in IMR32 cells). It is filed as cell-based. A digest of the protocol: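 IC50 values derive from nonlinear sigmoidal fitting of percent inhibition, relative to inhibitor-free activity, of Ca2+ influx read by FLIPR. Cells were IMR32 human neuroblastoma, plated at 1−1.2×10^5 per well and grown 48 h at 37 °C.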
Sequence of human Cav2.2 (Q00975 whole entry): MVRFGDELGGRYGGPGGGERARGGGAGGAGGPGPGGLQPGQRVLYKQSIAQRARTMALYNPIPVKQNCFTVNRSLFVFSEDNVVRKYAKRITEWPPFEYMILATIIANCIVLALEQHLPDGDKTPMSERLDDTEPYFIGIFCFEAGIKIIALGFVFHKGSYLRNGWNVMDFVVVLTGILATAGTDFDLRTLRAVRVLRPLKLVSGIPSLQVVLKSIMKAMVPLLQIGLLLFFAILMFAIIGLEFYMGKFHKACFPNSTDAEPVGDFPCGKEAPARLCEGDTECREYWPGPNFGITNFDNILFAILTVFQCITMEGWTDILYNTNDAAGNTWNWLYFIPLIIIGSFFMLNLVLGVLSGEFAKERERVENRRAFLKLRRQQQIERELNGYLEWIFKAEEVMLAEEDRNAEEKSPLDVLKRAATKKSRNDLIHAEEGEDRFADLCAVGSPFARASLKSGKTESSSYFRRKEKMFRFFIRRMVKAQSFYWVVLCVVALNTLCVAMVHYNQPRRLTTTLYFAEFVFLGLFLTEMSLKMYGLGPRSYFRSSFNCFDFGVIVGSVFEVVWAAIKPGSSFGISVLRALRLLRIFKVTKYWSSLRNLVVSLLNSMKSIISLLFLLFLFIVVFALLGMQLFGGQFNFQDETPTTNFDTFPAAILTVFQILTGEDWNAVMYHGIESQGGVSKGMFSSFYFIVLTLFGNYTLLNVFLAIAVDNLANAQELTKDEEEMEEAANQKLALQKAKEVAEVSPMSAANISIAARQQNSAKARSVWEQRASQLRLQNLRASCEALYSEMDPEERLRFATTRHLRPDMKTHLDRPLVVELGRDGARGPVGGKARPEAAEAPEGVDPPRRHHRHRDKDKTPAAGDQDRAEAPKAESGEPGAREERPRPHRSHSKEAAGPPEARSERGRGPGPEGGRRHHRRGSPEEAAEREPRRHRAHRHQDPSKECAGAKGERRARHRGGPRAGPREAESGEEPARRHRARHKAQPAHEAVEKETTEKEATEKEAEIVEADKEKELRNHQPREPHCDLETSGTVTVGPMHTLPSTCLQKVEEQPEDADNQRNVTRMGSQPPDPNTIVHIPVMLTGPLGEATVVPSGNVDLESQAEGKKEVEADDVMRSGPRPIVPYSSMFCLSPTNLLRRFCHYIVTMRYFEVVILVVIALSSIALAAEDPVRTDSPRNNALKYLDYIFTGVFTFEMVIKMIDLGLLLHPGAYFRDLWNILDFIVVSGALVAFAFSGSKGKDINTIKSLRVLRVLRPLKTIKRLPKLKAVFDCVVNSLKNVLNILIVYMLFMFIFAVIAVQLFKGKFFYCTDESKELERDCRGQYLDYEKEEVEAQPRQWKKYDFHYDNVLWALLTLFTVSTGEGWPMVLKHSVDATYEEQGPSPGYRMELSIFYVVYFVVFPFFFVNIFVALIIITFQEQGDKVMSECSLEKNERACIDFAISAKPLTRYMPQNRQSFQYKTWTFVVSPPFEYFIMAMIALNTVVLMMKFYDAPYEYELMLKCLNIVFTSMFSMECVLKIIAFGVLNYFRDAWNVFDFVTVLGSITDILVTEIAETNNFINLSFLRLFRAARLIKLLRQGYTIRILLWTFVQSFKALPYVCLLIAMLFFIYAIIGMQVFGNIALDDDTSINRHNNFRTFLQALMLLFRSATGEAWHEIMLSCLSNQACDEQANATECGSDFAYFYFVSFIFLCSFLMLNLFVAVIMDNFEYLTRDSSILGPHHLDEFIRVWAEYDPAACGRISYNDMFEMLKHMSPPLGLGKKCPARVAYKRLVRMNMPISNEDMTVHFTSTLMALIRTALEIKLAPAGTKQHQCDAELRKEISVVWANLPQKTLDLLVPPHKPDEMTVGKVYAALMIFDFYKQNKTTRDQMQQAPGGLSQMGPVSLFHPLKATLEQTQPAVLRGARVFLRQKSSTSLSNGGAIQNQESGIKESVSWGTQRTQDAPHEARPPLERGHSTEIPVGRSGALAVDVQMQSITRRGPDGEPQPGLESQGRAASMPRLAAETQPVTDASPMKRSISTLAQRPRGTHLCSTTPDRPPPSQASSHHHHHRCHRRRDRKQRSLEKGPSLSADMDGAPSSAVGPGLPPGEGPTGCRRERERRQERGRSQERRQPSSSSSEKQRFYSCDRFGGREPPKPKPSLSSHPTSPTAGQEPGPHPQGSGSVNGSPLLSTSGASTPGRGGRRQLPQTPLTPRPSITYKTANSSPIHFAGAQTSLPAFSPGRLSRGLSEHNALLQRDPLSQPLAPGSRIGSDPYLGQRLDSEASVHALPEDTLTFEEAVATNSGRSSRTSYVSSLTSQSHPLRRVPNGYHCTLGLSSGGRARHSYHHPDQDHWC
Sequence of human Cav2.2 (P54289 25-956 partner limits assumed): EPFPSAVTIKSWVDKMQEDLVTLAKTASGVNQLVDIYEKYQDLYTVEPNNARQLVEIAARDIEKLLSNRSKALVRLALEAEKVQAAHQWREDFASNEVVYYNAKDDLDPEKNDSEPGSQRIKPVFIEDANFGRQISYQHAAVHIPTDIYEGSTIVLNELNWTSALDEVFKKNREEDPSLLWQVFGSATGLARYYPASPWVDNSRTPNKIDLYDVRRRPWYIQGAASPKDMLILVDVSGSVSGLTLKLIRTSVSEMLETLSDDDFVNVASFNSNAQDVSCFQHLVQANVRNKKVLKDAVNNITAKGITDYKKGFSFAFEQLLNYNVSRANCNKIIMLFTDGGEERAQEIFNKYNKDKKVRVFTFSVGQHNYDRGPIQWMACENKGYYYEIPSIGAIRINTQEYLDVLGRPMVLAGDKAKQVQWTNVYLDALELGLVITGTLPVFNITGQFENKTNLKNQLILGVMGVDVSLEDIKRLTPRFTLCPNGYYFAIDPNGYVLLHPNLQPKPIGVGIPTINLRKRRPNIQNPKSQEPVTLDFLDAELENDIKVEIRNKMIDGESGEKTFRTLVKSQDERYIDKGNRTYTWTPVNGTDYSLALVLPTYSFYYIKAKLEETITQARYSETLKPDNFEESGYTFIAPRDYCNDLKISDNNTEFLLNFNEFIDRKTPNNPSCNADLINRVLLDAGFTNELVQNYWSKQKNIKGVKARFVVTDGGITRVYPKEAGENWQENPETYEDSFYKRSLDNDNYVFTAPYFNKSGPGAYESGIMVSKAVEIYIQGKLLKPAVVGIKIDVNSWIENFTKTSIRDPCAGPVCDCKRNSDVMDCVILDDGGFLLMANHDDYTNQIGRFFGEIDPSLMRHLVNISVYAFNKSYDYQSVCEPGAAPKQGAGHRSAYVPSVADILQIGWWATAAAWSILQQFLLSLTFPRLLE
Sequence of human Cav2.2 (P54289 957-1103 partner limits assumed): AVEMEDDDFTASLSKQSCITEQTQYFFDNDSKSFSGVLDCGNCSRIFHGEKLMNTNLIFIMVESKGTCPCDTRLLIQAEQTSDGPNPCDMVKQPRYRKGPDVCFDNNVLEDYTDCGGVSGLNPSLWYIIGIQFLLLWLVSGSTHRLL
Sequence of human Cav2.2 (P54284 whole entry partner): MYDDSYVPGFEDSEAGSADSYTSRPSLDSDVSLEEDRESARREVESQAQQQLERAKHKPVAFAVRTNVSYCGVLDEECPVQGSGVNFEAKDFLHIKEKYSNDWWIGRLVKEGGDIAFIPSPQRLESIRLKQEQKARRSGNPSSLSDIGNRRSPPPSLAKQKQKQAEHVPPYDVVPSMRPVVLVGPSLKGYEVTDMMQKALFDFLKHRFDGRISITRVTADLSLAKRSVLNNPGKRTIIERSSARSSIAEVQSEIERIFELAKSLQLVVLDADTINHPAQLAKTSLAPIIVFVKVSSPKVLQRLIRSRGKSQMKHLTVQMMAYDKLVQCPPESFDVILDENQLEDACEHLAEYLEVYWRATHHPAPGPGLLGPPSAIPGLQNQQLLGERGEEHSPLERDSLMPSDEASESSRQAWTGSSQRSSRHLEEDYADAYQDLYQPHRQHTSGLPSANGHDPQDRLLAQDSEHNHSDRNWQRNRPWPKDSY

In assay [3] the test system is Sprague Dawley rats. Description: Capsaicin induced secondary mechanical hyperalgesia model. It is filed as in vivo. Conditions: po, 1 h, read-out: % inhibition @ 30 mg/kg p.o.; 30 mg/kg p.o. 60 minutes before testing; SMH measured 180 minutes after capsaicin; rat. On the procedure: (ii) In Vivo Data—Capsaicin Induced Secondary Mechanical Hyperalgesia Model:
Sprague Dawley rats were briefly restrained, and capsaicin was administered at 10 μg in 10 μL of vehicle by intraplantar injection into the center of the right hind paw. Secondary mechanical hyperalgesia (SMH) was measured at the heel away from the site of injection 180 minutes following capsaicin exposure. Compounds and gabapentin (positive control), were administered p.o. 60 minutes before testing (2 hours after capsaicin) or i.p. 30 minutes before testing (2.5 hours after capsaicin). SMH was measured using calibrated von Frey filaments (Stoelting, Woodale, Ill.). Following the 1 hour habituation in the testing room, rats were moved to individual plexiglass chambers that sit on top of a wire mesh to allow for access for stimulation of the plantar surface of the hind paws. Rats were allowed to acclimate to the new chambers for 15 minutes before the onset of testing. The paw withdrawal threshold was determined by increasing and decreasing stimulus intensity (force: g) and calculated using Dixon's up-down method (Chaplan, S. R.; Bach, F. W.; Pogrel, J. W.; Chung, J. M.; Yaksh, T. L.; J. Neuroscience Methods 1994, 53(1), 55-63.). The filaments (maximum force of 15.0 g) were held in place for 8 seconds or until there was a withdrawal response from the mechanical stimulation.

pIC50: −log10 of the molar value.

Take `CN[C@@H](CC(C)C)C(=O)N[C@@H]1CC[C@H]2CN(c3ccc(OC(F)(F)F)cc3)C[C@H]21` [Example 739, N^2-methyl-N-{(3aS,4R,6aR)-2-[4-(trifluoromethoxy)phenyl]octahydrocyclopenta[c]pyrrol-4-yl}-L-leucinamide]: the inhibition in vivo at 30 mg/kg in assay [1] was determined as 63%. In addition, in assay [2], the negative-log IC50 (pIC50) is 5.55. On to `CCC[C@H](NC)C(=O)N[C@H]1CC[C@@H]2CN(c3cccc(OC(F)(F)F)c3)C[C@@H]21` [Example 718, N^2-methyl-N-{(3aR,4S,6aS)-2-[3-(trifluoromethoxy)phenyl]octahydrocyclopenta[c]pyrrol-4-yl}-L-norvalinamide], for which, in assay [1], the inhibition in vivo at 30 mg/kg was 29%. Besides, the negative logarithm of the IC50 (pIC50) in assay [2] was 5.89. As to `CN[C@@H](CC(C)C)C(=O)N[C@H]1CC[C@@H]2CN(c3ccc(OC(F)(F)F)cc3)C[C@@H]21` [Example 624, N^2-methyl-N-{(3aR,4S,6aS)-2-[4-(trifluoromethoxy)phenyl]octahydrocyclopenta[c]pyrrol-4-yl}-L-leucinamide], in assay [1], the inhibition in vivo at 30 mg/kg was 85%. The pIC50 in assay [2] is 5.31.

On to `CN[C@@H](CC(C)(C)C)C(=O)N1C[C@H]2CC[C@H](NC(=O)C(c3ccc(F)cc3)c3ccc(F)cc3)[C@H]2C1` [Example 461, N-[(3aR,4S,6aS)-2-(N,4-dimethyl-L-leucyl)octahydrocyclopenta[c]pyrrol-4-yl]-2,2-bis(4-fluorophenyl)acetamide], for which the inhibition in vivo at 30 mg/kg in assay [3] stood at 43%. Further, the negative-log IC50 (pIC50) in assay [2] is 5.84. Regarding `Fc1ccc2[nH]c(CN[C@H]3CC[C@@H]4CN(c5cccc(C(F)(F)F)n5)C[C@@H]43)cc2c1` [Example 613, (3aR,4S,6aS)-N-[(5-fluoro-1H-indol-2-yl)methyl]-2-[6-(trifluoromethyl)pyridin-2-yl]octahydrocyclopenta[c]pyrrol-4-amine], the inhibition in vivo at 30 mg/kg in assay [1] amounted to 61%. Besides, the pIC50 in assay [2] was 6.04. Take `CC(C)(C)[C@H](O)C(=O)N[C@H]1CC[C@@H]2CN(c3cccc(C(F)(F)F)n3)C[C@@H]21` [Example 580, (2S)-2-hydroxy-3,3-dimethyl-N-{(3aR,4S,6aS)-2-[6-(trifluoromethyl)pyridin-2-yl]octahydrocyclopenta[c]pyrrol-4-yl}butanamide]: in assay [1], the inhibition in vivo at 30 mg/kg is 5%. In addition, in assay [2], the pIC50 is 5.73. On to `O=C(N[C@H]1CC[C@@H]2CN(c3cccc(C(F)(F)F)n3)C[C@@H]21)C1(O)CCCC1` [Example 573, 1-hydroxy-N-{(3aR,4S,6aS)-2-[6-(trifluoromethyl)pyridin-2-yl]octahydrocyclopenta[c]pyrrol-4-yl}cyclopentanecarboxamide], for which, in assay [3], the inhibition in vivo at 30 mg/kg amounted to 57%. Also, the negative-log IC50 (pIC50) in assay [2] was 5.77.

Turning to `O=C(N[C@H]1CC[C@@H]2CN(c3cccc(C(F)(F)F)n3)C[C@@H]21)[C@@H]1C[C@@H](F)CN1` [Example 592, (4R)-4-fluoro-N-{(3aR,4S,6aS)-2-[6-(trifluoromethyl)pyridin-2-yl]octahydrocyclopenta[c]pyrrol-4-yl}-L-prolinamide], in assay [3], the inhibition in vivo at 30 mg/kg came to 54%. The negative-log IC50 (pIC50) in assay [2] is 5.35. In the case of `O=C(N[C@H]1CC[C@@H]2CN(c3cccc(OC(F)(F)F)c3)C[C@@H]21)[C@@H]1C[C@@H](F)CN1` [Example 627, (4R)-4-fluoro-N-{(3aR,4S,6aS)-2-[3-(trifluoromethoxy)phenyl]octahydrocyclopenta[c]pyrrol-4-yl}-L-prolinamide], the inhibition in vivo at 30 mg/kg in assay [1] stood at 54%. Also, in assay [2], the negative-log IC50 (pIC50) is 5.57. `O=C(N[C@H]1CC[C@@H]2CN(c3cccc(C(F)(F)F)n3)C[C@@H]21)[C@@H]1CCCCN1` [Example 597, (2S)-N-{(3aR,4S,6aS)-2-[6-(trifluoromethyl)pyridin-2-yl]octahydrocyclopenta[c]pyrrol-4-yl}piperidine-2-carboxamide]: the inhibition in vivo at 30 mg/kg in assay [3] was 54%. Also, the pIC50 in assay [2] is 5.89. Turning to `CN[C@@H](CC(C)C)C(=O)N[C@H]1CC[C@@H]2CN(c3nccc(C(F)(F)F)n3)C[C@@H]21` [Example 722, N^2-methyl-N-{(3aR,4S,6aS)-2-[4-(trifluoromethyl)pyrimidin-2-yl]octahydrocyclopenta[c]pyrrol-4-yl}-L-leucinamide], the inhibition in vivo at 30 mg/kg in assay [1] is 8%. Moreover, the negative logarithm of the IC50 (pIC50) in assay [2] was 5.60. As to `CN[C@@H](CC(C)C)C(=O)N[C@H]1CC[C@@H]2CN(c3ccc(C(F)(F)F)cc3)C[C@@H]21` [Example 608, N^2-methyl-N-{(3aR,4S,6aS)-2-[4-(trifluoromethyl)phenyl]octahydrocyclopenta[c]pyrrol-4-yl}-L-leucinamide], the inhibition in vivo at 30 mg/kg in assay [1] was determined as 79%. Further, the negative-log IC50 (pIC50) in assay [2] is 5.78. `CN[C@@H](CC(C)C)C(=O)N[C@H]1CC[C@@H]2CN(c3ccc(C(F)(F)F)nc3)C[C@@H]21` [Example 735, N^2-methyl-N-{(3aR,4S,6aS)-2-[6-(trifluoromethyl)pyridin-3-yl]octahydrocyclopenta[c]pyrrol-4-yl}-L-leucinamide]: the inhibition in vivo at 30 mg/kg in assay [1] is 60%. Moreover, the pIC50 in assay [2] was 5.44. Turning to `CN[C@@H](CC(C)C)C(=O)N[C@H]1CC[C@@H]2CN(c3cccc(C(F)F)c3)C[C@@H]21` [Example 729, N-{(3aR,4S,6aS)-2-[3-(difluoromethyl)phenyl]octahydrocyclopenta[c]pyrrol-4-yl}-N^2-methyl-L-leucinamide], the inhibition in vivo at 30 mg/kg in assay [1] was found to be 85%. Further, in assay [2], the pIC50 is 5.97. For the molecule `CN[C@@H](CC(C)C)C(=O)N[C@H]1CC[C@@H]2CN(c3cccc(OC(F)(F)F)c3)C[C@@H]21` [Example 625, N^2-methyl-N-{(3aR,4S,6aS)-2-[3-(trifluoromethoxy)phenyl]octahydrocyclopenta[c]pyrrol-4-yl}-L-leucinamide], the inhibition in vivo at 30 mg/kg in assay [1] is 42%. The negative-log IC50 (pIC50) in assay [2] was 5.85. Consider `O=C(N[C@H]1CC[C@@H]2CN(c3cccc(C(F)(F)F)n3)C[C@@H]21)[C@@H]1C[C@@H]2CCCC[C@@H]2N1` [Example 593, (2S,3aS,7aS)-N-{(3aR,4S,6aS)-2-[6-(trifluoromethyl)pyridin-2-yl]octahydrocyclopenta[c]pyrrol-4-yl}octahydro-1H-indole-2-carboxamide], for which the inhibition in vivo at 30 mg/kg in assay [3] came out at 76%. Besides, the negative-log IC50 (pIC50) in assay [2] is 6.28. For `CN[C@@H](CC(C)(C)C)C(=O)N[C@H]1CC[C@@H]2CN(c3cccc(C(F)(F)F)n3)C[C@@H]21` [Example 587, N^2,4-dimethyl-N-{(3aR,4S,6aS)-2-[6-(trifluoromethyl)pyridin-2-yl]octahydrocyclopenta[c]pyrrol-4-yl}-L-leucinamide] the same measures were 16% and 6.41. With `COc1ccc2[nH]cc(CN[C@H]3CC[C@@H]4CN(c5cccc(C(F)(F)F)n5)C[C@@H]43)c2c1` [Example 685, (3aR,4S,6aS)-N-[(5-methoxy-1H-indol-3-yl)methyl]-2-[6-(trifluoromethyl)pyridin-2-yl]octahydrocyclopenta[c]pyrrol-4-amine], the negative-log IC50 (pIC50) in assay [2] is 5.96.

As usually defined, the pIC50 is −log10 of the IC50, conventionally taken in molar units.
